Measurements as given in publication PMC8365601, “Terphenyl-Based Small-Molecule Inhibitors of Programmed Cell Death-1/Programmed Death-Ligand 1 Protein–Protein Interaction” (Journal of Medicinal Chemistry, 2021).
Read-outs that look alike come from different tables or passages of the source.

Molecular target: PD-1/PD-L1 complex (Homo sapiens, UniProt Q9NZQ7)
Experiment: HTRF assay of PD-1/PD-L1 complex dissociation (CisBio);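 note: human PD-L1 at 5 nM with human PD-1 at 50 nM, TR-FRET signal read after 2 h at room temperature, background removed via negative control and scaled to positive control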
Settings: for remaining activity at 5 µM / remaining activity at 50 µM / remaining activity at 0.005 µM: 2 h; for IC50: HTRF; for % of undissociated complex: at 50 μM, Table S1; for HTRF % of the undissociated complex: determined at 50 μM inhibitor (footnote a), Table 2; for % of the undissociated complex: 5 μM
[1] = read-out: % of the undissociated complex in HTRF
[2] = read-out: % of undissociated complex at 5 μM
[3] = read-out: HTRF % of the undissociated complex at 5 μM
[4] = read-out: % of undissociated complex at 5 nM
[5] = read-out: HTRF % of the undissociated complex at 5 nM
[6] = Table 4, <1.00 = limit of quantification reached

Sequence of PD-1/PD-L1 complex (Q9NZQ7 19-238 limits assumed, one chain of several): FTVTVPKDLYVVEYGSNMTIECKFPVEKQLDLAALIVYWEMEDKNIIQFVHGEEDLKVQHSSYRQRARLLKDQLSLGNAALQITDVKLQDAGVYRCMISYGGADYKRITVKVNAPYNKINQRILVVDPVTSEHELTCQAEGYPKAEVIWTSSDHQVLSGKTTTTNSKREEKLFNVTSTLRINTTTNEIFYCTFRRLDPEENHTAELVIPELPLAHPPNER

remaining activity at 5 µM [1] [%] | remaining activity at 5 µM [2] [%] | remaining activity at 5 µM [3] [%] | remaining activity at 0.005 µM [4] [%] | remaining activity at 0.005 µM [5] [%] | SMILES | also measured
88 | 88 | 88 | – | – | Cc1c(-c2cccc(CO)c2)cccc1-c1ccc2c(c1)OCCO2 [4b, (3′-(Benzo-1,4-dioxan-6-yl)-2′-methyl-[1,1′-biphenyl]-3-yl)methanol] | –
98 | 98 | 98 | – | – | Cc1c(-c2ccc3c(c2)OCCO3)cccc1-c1ccccc1CO [4c, (3′-(Benzo-1,4-dioxan-6-yl)-2′-methyl-[1,1′-biphenyl]-2-yl)methanol] | –
73 | 73 | 73 | – | – | Nc1c(-c2ccc(CO)cc2)cccc1-c1ccc2c(c1)OCCO2 [4d, (2′-Amino-3′-(benzo-1,4-dioxan-6-yl)-[1,1′-biphenyl]-4-yl)methanol] | –
1 | 1 | 1 | – | – | OCc1ccc(-c2cccc(-c3ccc4c(c3)OCCO4)c2Cl)cc1 [4e, (3′-(Benzo-1,4-dioxan-6-yl)-2′-chloro-[1,1′-biphenyl]-4-yl)methanol] | IC50: ~500 nM; IC50 (Table 1): 510 ± 10 nM
15 | 15 | 15 | – | – | OCc1ccc(-c2cccc(-c3ccc4c(c3)OCCO4)c2Br)cc1 [4f, (3′-(Benzo-1,4-dioxan-6-yl)-2′-bromo-[1,1′-biphenyl]-4-yl)methanol] | IC50 (Table 1): 950 ± 20 nM
56 | 56 | 56 | – | – | OCc1ccc(-c2cccc(-c3ccc4c(c3)OCCO4)c2I)cc1 [4g, (3′-(Benzo-1,4-dioxan-6-yl)-2′-iodo-[1,1′-biphenyl]-4-yl)methanol] | –
21 | 21 | 21 | – | – | N#Cc1c(-c2ccc(CO)cc2)cccc1-c1ccc2c(c1)OCCO2 [4h] | IC50 (Table 1): 1170 ± 120 nM
– | – | – | – | – | Cc1c(-c2ccc(COc3cccc(C(=O)O)c3)cc2)cccc1-c1ccc2c(c1)OCCO2 [5b, 3-((3′-(Benzo-1,4-dioxan-6-yl)-2′-methyl-[1,1′-biphenyl]-4-yl)methoxy)benzoic Acid] | remaining activity at 50 µM [1]: 71%; % of undissociated complex: 71%; HTRF % of the undissociated complex: 71^[a] %
– | – | – | – | – | Cc1c(-c2ccc(COc3ccc(-c4cccnc4)c(C=O)c3)cc2)cccc1-c1ccc2c(c1)OCCO2 [5d, 5-((3′-(Benzo-1,4-dioxan-6-yl)-2′-methyl-[1,1′-biphenyl]-4-yl)methoxy)-2-(pyridin-3-yl)benzaldehyde] | remaining activity at 50 µM [1]: 65%; % of undissociated complex: 65%; HTRF % of the undissociated complex: 65^[a] %
90 | 90 | 90 | – | – | Cc1c(-c2ccc(COc3cc(C(=O)O)on3)cc2)cccc1-c1ccc2c(c1)OCCO2 [5f, 3-((3′-(Benzo-1,4-dioxan-6-yl)-2′-methyl-[1,1′-biphenyl]-4-yl)methoxy)isoxazole-5-carboxylic Acid] | –
100 | 100 | 100 | – | – | Cc1c(-c2ccc(Cn3cc(C(=O)O)nn3)cc2)cccc1-c1ccc2c(c1)OCCO2 [5h, 1-((3′-(Benzo-1,4-dioxan-6-yl)-2′-methyl-[1,1′-biphenyl]-4-yl)methyl)-1H-1,2,3-triazole-4-carboxylic Acid] | –
90 | 90 | 90 | – | – | Cc1c(-c2cccc(COc3cccc(C(=O)O)c3)c2)cccc1-c1ccc2c(c1)OCCO2 [5j, 3-((3′-(Benzo-1,4-dioxan-6-yl)-2′-methyl-[1,1′-biphenyl]-3-yl)methoxy)benzoic Acid] | –
– | – | – | – | – | Cc1c(-c2cccc(COc3ccc(-c4cccnc4)c(C=O)c3)c2)cccc1-c1ccc2c(c1)OCCO2 [5l, 5-((3′-(Benzo-1,4-dioxan-6-yl)-2′-methyl-[1,1′-biphenyl]-3-yl)methoxy)-2-(yridine-3-yl)benzaldehyde] | remaining activity at 50 µM [1]: 95%; % of undissociated complex: 95%; HTRF % of the undissociated complex: 95^[a] %
77 | 77 | 77 | – | – | Cc1c(-c2cccc(COc3cc(C(=O)O)on3)c2)cccc1-c1ccc2c(c1)OCCO2 [5n, 3-((3′-(Benzo-1,4-dioxan-6-yl)-2′-methyl-[1,1′-biphenyl]-3-yl)methoxy)isoxazole-5-carboxylic Acid] | –
– | – | – | – | – | Cc1c(-c2ccc3c(c2)OCCO3)cccc1-c1ccccc1COc1cccc(C(=O)O)c1 [5p, 3-((3′-(Benzo-1,4-dioxan-6-yl)-2′-methyl-[1,1′-biphenyl]-2-yl)methoxy)benzoic Acid] | remaining activity at 50 µM [1]: 87%; % of undissociated complex: 87%; HTRF % of the undissociated complex: 87^[a] %
100 | 100 | 100 | – | – | Cc1c(-c2ccc3c(c2)OCCO3)cccc1-c1ccccc1COc1cc(C(=O)O)on1 [5r, 3-((3′-(Benzo-1,4-dioxan-6-yl)-2′-methyl-[1,1′-biphenyl]-2-yl)methoxy)isoxazole-5-carboxylic Acid] | –
55 | 55 | 55 | – | – | Cc1c(-c2ccc(CN3CCOCC3)cc2)cccc1-c1ccc2c(c1)OCCO2 [6a, 4-((3′-(Benzo-1,4-dioxan-6-yl)-2′-methyl-[1,1′-biphenyl]-4-yl)methyl)morpholine] | –
5 | 5 | 5 | – | – | Cc1c(-c2ccc(CN3CCNCC3)cc2)cccc1-c1ccc2c(c1)OCCO2 [6b, 4-((3′-(Benzo-1,4-dioxan-6-yl)-2′-methyl-[1,1′-biphenyl]-4-yl)methyl)piperazine] | % of the undissociated complex: 5%
56 | 56 | 56 | – | – | Cc1c(-c2cccc(CN3CCNCC3)c2)cccc1-c1ccc2c(c1)OCCO2 [6c, 1-((3′-(Benzo-1,4-dioxan-6-yl)-2′-methyl-[1,1′-biphenyl]-3-yl)methyl)piperazine] | % of the undissociated complex: about 56%
– | – | – | 63 | 63 | COc1cc(-c2cccc(-c3ccc4c(c3)OCCO4)c2C)ccc1CN1CCNCC1 [6d, 1-((3′-(Benzo-1,4-dioxan-6-yl)-3-methoxy-2′-methyl-[1,1′-biphenyl]-4-yl)methyl)piperazine] | –
– | – | – | 88 | 88 | Cc1c(-c2ccc(CN3CCNCC3)c(OCc3cccc(C#N)c3)c2)cccc1-c1ccc2c(c1)OCCO2 [6e, 3-(((3′-(Benzo-1,4-dioxan-6-yl)-2′-methyl-4-(piperazin-1-ylmethyl)-[1,1′-biphenyl]-3-yl)oxy)methyl)benzonitrile] | –
– | – | – | 5 | 5 | CCOc1cc(-c2cccc(-c3ccc4c(c3)OCCO4)c2Cl)ccc1CNCCNC(C)=O [7b, N-(2-(((3′-(Benzo-1,4-dioxan-6-yl)-2′-chloro-3-ethoxy-[1,1′-biphenyl]-4-yl)methyl)amino)ethyl)acetamide] | –
– | – | – | 5 | 5 | CC(=O)NCCNCc1ccc(-c2cccc(-c3ccc4c(c3)OCCO4)c2Cl)cc1OC(C)C [7c, N-(2-(((3′-(Benzo-1,4-dioxan-6-yl)-2′-chloro-3-isopropoxy-[1,1′-biphenyl]-4-yl)methyl)amino)ethyl)acetamide] | –
– | – | – | 65 | 65 | CC(=O)NCCNCc1ccc(-c2cccc(-c3ccc4c(c3)OCCO4)c2Cl)cc1OCCC(C)C [7d, N-(2-(((3′-(Benzo-1,4-dioxan-6-yl)-2′-chloro-3-isopentyloxy-[1,1′-biphenyl]-4-yl)methyl)amino)ethyl)acetamide] | –
– | – | – | 53 | 53 | CC(=O)NCCNCc1ccc(-c2cccc(-c3ccc4c(c3)OCCO4)c2Cl)cc1OCC1CCC1 [7f, N-(2-(((3′-(Benzo-1,4-dioxan-6-yl)-2′-chloro-3-(cyclobutylmethoxy)-[1,1′-biphenyl]-4-yl)methyl)amino)ethyl)acetamide] | –
– | – | – | 76 | 76 | CC(=O)NCCNCc1ccc(-c2cccc(-c3ccc4c(c3)OCCO4)c2Cl)cc1OCC1CCCC1 [7g, N-(2-(((3′-(Benzo-1,4-dioxan-6-yl)-2′-chloro-3-(cyclopentylmethoxy)-[1,1′-biphenyl]-4-yl)methyl)amino)ethyl)acetamide] | –
– | – | – | 100 | 100 | CC(=O)NCCNCc1ccc(-c2cccc(-c3ccc4c(c3)OCCO4)c2Cl)cc1OCc1cccc(-c2cccc(C#N)c2)c1 [7h, N-(2-(((3′-(Benzo-1,4-dioxan-6-yl)-2′-chloro-3-((3′-cyano-[1,1′-biphenyl]-3-yl)methoxy)-[1,1′-biphenyl]-4-yl)methyl)amino)ethyl)acetamide] | –
– | – | – | 38 | 38 | COc1cc(-c2cccc(-c3ccc4c(c3)OCCO4)c2Cl)ccc1CN1CCNCC1 [8a, 1-((3′-(Benzo-1,4-dioxan-6-yl)-2′-chloro-3-methoxy-[1,1′-biphenyl]-4-yl)methyl)piperazine] | IC50 [6]: 18.09 ± 0.09 nM
– | – | – | 28 | 28 | COc1cc(-c2cccc(-c3ccc4c(c3)OCCO4)c2Cl)ccc1CN1CCN(C(N)=O)CC1 [8b, 4-((3′-(Benzo-1,4-dioxan-6-yl)-2′-chloro-3-methoxy-[1,1′-biphenyl]-4-yl)methyl)piperazine-1-carboxamide] | IC50 [6]: < 1 nM
– | – | – | 40 | 40 | COc1cc(-c2cccc(-c3ccc4c(c3)OCCO4)c2Cl)ccc1CN1CCN(C(C)=O)CC1 [8c, 1-(4-((3′-(Benzo-1,4-dioxan-6-yl)-2′-chloro-3-methoxy-[1,1′-biphenyl]-4-yl)methyl)piperazin-1-yl)ethan-1-one] | IC50 [6]: < 1 nM
